Values of other authors as cited in patent publication US20220160619A1, “Effervescent Drug Formulations” (Complete Medical Solutions, LLC, priority 2020, published 2022).

Conditions: long-term metformin therapy in addition to dietary management

diabetic patients with cobalamin malabsorption: 30%
SMILES: CN(C)C(=N)N=C(N)N [metformin]
